# Assay results published in paper PMC3884022 (Journal of Hematology & Oncology, 2014).
# Experiments:
# CYP3A [1] = assay: CYP3A induction (mRNA and activity); type: in vitro ADME; conditions: at 0.1 to 10 μM
# 2C9 = 2C9 (Homo sapiens, UniProt P11712); assay: CYP2C9 inhibition; type: in vitro ADME
# CYP3A [2] = assay: Metabolism in human microsomes; type: in vitro ADME
# AKT1 = system: AKT1; design: method as in earlier work; conditions: cited from earlier work
# AKT3 = system: AKT3; design: method as in earlier work; conditions: cited from earlier work
# Sequence of 2C9 (P11712 whole entry): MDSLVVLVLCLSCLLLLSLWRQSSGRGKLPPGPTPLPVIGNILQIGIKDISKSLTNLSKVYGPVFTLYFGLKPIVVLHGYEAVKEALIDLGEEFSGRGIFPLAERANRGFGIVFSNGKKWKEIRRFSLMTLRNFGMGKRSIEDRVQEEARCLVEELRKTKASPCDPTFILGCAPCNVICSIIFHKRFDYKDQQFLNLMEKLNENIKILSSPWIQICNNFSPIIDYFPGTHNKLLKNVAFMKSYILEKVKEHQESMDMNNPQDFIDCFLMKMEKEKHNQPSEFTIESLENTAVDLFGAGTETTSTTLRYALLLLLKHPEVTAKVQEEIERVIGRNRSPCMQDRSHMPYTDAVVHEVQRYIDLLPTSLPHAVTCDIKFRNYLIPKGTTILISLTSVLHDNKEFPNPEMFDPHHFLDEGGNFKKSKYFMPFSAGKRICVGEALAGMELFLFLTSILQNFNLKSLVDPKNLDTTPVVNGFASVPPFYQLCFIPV
compound,measurement,setting,value
NC1(c2ccc(-c3nc4ccn5c(=O)[nH]nc5c4cc3-c3ccccc3)cc2)CCC1 [MK-2206],effect on CYP3A mRNA and activity,CYP3A [1],insignificant effect
same,IC50,2C9,> 35000 nM
same,metabolism to oxidative metabolites,CYP3A [2],mediated primarily by CYP3A
same,IC50,AKT3,65 nM
